Test [1] addresses human A2A receptors (Homo sapiens (Human), UniProt P29274). Briefly: A2A antagonism in cAMP cell-based assay (LANCE cAMP, HEK293). Conditions: HEK293 cells expressing human A2A receptor. The method in brief:
(§1)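 HEK293 cells expressing human A2A or A2B, in HBSS/5 mM HEPES/200 nM rolipram, were preincubated with compound (0.5–10,000 nM, 0.25% DMSO) 30 min at 37° C. Adenosine was then added from 300 nM (A2A) or 600 nM (A2B) solution for 30 min.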

Test [2] deals with human A2B receptors (Homo sapiens (Human), UniProt P29275). Briefly: A2B antagonism in cAMP cell-based assay (LANCE cAMP, HEK293). Conditions: HEK293 cells expressing human A2B receptor; for A2B cAMP % Inh. @10000 nM: at 10000 nM. The method in brief: as §1

The values below come from US11312719B2, “9-substituted amino triazolo quinazoline derivatives as adenosine receptor antagonists, pharmaceutical compositions and their use” (Merck Sharp & Dohme Corp., priority 2018, dated 2022).

A word on the IC50: it is the concentration that inhibits the measured activity by half.

Chain of human A2B receptors (P29275 whole entry): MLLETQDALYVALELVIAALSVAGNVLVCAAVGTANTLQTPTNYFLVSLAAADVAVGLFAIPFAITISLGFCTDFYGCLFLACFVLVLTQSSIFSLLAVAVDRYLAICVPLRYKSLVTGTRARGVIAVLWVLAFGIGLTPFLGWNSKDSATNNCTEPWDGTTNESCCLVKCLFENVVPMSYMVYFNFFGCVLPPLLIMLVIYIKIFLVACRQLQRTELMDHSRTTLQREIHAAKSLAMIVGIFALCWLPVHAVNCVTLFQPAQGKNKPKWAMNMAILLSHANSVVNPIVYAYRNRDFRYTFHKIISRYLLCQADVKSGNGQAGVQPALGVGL
Chain of human A2A receptors (P29274 whole entry): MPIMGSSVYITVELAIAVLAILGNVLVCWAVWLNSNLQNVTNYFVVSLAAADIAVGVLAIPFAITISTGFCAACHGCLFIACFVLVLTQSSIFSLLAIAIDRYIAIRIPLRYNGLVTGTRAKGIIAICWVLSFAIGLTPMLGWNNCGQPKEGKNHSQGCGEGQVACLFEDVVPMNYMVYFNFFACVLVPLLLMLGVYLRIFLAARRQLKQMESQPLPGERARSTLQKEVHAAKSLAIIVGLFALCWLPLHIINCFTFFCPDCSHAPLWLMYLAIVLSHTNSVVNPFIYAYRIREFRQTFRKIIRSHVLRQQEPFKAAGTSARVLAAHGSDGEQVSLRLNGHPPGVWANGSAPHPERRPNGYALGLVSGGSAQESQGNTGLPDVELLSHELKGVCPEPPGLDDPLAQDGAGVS

Turning to `Cc1c(N2CC(C)CC(c3nc4c5cc(F)cc(F)c5nc(N)n4n3)C2)cnn1C(C)C(C)O` (single isomer, unassigned) [Example 216, (2S,3S or 2R,3R)-3-(4-((3R,5S or 3S,5R)-3-(5-amino-7,9-difluoro-[1,2,4]triazolo[1,5-c]quinazolin-2-yl)-5-methylpiperidin-1-yl)-5-methyl-1H-pyrazol-1-yl)butan-2-ol], the IC50 was determined as 1 nM in test [1] and 160 nM in test [2].

Consider `Cc1c(N2CC(C)CC(c3nc4c5cc(F)cc(F)c5nc(N)n4n3)C2)cnn1C(C)C(C)O` (single isomer, unassigned) [Example 217, (2R,3R or 2S,3S)-3-(4-((3R,5S or 3S,5R)-3-(5-amino-7,9-difluoro-[1,2,4]triazolo[1,5-c]quinazolin-2-yl)-5-methylpiperidin-1-yl)-5-methyl-1H-pyrazol-1-yl)butan-2-ol], for which the values for the IC50 in test [1] and in test [2] were 1.1 nM and 161 nM, respectively.

For `Cc1c(N2CC(C)CC(c3nc4c5cc(F)cc(F)c5nc(N)n4n3)C2)cnn1C(C)C(C)O` (single isomer, unassigned) [Example 218, (2R,3R or 2S,3S)-3-(4-((3S,5R or 3R,5S)-3-(5-amino-7,9-difluoro-[1,2,4]triazolo[1,5-c]quinazolin-2-yl)-5-methylpiperidin-1-yl)-5-methyl-1H-pyrazol-1-yl)butan-2-ol], the IC50 is 236 nM in test [1] and 5780 nM in test [2].

In the case of `Cc1c(N2CC(C)CC(c3nc4c5cc(F)cc(F)c5nc(N)n4n3)C2)cnn1C(C)C(C)O` (single isomer, unassigned) [Example 219, (2S,3S or 2R,3R)-3-(4-((3S,5R or 3R,5S)-3-(5-amino-7,9-difluoro-[1,2,4]triazolo[1,5-c]quinazolin-2-yl)-5-methylpiperidin-1-yl)-5-methyl-1H-pyrazol-1-yl)butan-2-ol], it took 247 nM to reach half-maximal inhibition in test [1] (IC50). Besides, the “A2B cAMP % Inh. @10000 nM” value in test [2] worked out at 27% Inh.

Molecule `COc1cc(F)cc2c1nc(N)n1nc(C3CC(C)CN(c4cnn(C(C)C(C)O)c4C)C3)nc21` (single isomer, unassigned) [Example 220, (2S,3S or 2R,3R)-3-(4-((3R,5S or 3S,5R)-3-(5-amino-9-fluoro-7-methoxy-[1,2,4]triazolo[1,5-c]quinazolin-2-yl)-5-methylpiperidin-1-yl)-5-methyl-1H-pyrazol-1-yl)butan-2-ol] had an IC50 in test [1] of 20.4 nM. Moreover, in test [2], the “A2B cAMP % Inh. @10000 nM” value is reported as 30% Inh.

For `COc1cc(F)cc2c1nc(N)n1nc(C3CC(C)CN(c4cnn(C(C)C(C)O)c4C)C3)nc21` (single isomer, unassigned) [Example 221, (2R,3R or 2S,3S)-3-(4-((3R,5S or 3S,5R)-3-(5-amino-9-fluoro-7-methoxy-[1,2,4]triazolo[1,5-c]quinazolin-2-yl)-5-methylpiperidin-1-yl)-5-methyl-1H-pyrazol-1-yl)butan-2-ol], the results for the IC50 in test [1] and in test [2] were 0.5 nM and 63 nM, respectively.

As to `COc1cc(F)cc2c1nc(N)n1nc(C3CC(C)CN(c4cnn(C(C)C(C)O)c4C)C3)nc21` (single isomer, unassigned) [Example 222, (2R,3R or 2S,3S)-3-(4-((3S,5R or 3R,5S)-3-(5-amino-9-fluoro-7-methoxy-[1,2,4]triazolo[1,5-c]quinazolin-2-yl)-5-methylpiperidin-1-yl)-5-methyl-1H-pyrazol-1-yl)butan-2-ol], the IC50 in test [1] was determined as 34.6 nM; in test [2], 3280 nM.

`COc1cc(F)cc2c1nc(N)n1nc(C3CC(C)CN(c4cnn(C(C)C(C)O)c4C)C3)nc21` (single isomer, unassigned) [Example 223, (2S,3S or 2R,3R)-3-(4-((3S,5R or 3R,5S)-3-(5-amino-9-fluoro-7-methoxy-[1,2,4]triazolo[1,5-c]quinazolin-2-yl)-5-methylpiperidin-1-yl)-5-methyl-1H-pyrazol-1-yl)butan-2-ol]: the IC50 is 0.7 nM in test [1] and 46 nM in test [2].

With `COc1cc2nc(N)n3nc([C@@H]4CC[C@H](C)N(c5cnn([C@@H](C)[C@H](C)O)c5)C4)nc3c2cc1F` (single isomer, unassigned) [Example 228, (2S,3S or 2R,3R)-3-(4-((2S,5R or 2R,5S)-5-(5-amino-9-fluoro-8-methoxy-[1,2,4]triazolo[1,5-c]quinazolin-2-yl)-2-methylpiperidin-1-yl)-1H-pyrazol-1-yl)butan-2-ol], the values for the IC50 in test [1] and in test [2] were 0.8 nM and 16.1 nM, respectively.

Regarding `COc1cc2nc(N)n3nc([C@H]4CC[C@@H](C)N(c5cnn([C@@H](C)[C@H](C)O)c5)C4)nc3c2cc1F` (single isomer, unassigned) [Example 229, (2S,3S or 2R,3R)-3-(4-((2R,5S or 2S,5R)-5-(5-amino-9-fluoro-8-methoxy-[1,2,4]triazolo[1,5-c]quinazolin-2-yl)-2-methylpiperidin-1-yl)-1H-pyrazol-1-yl)butan-2-ol], the results for the IC50 in test [1] and in test [2] were 1 nM and 6.6 nM, respectively.

Turning to `COc1cc2nc(N)n3nc([C@H]4CC[C@@H](C)N(c5cnn([C@H](C)[C@@H](C)O)c5)C4)nc3c2cc1F` (single isomer, unassigned) [Example 230, (2R,3R or 2S,3S)-3-(4-((2R,5S or 2S,5R)-5-(5-amino-9-fluoro-8-methoxy-[1,2,4]triazolo[1,5-c]quinazolin-2-yl)-2-methylpiperidin-1-yl)-1H-pyrazol-1-yl)butan-2-ol], the IC50 in test [1] was determined as 32.9 nM; in test [2], 724 nM.

As to `COc1cc2nc(N)n3nc([C@@H]4CC[C@H](C)N(c5cnn([C@H](C)[C@@H](C)O)c5)C4)nc3c2cc1F` (single isomer, unassigned) [Example 231, (2R,3R or 2S,3S)-3-(4-((2S,5R or 2R,5S)-5-(5-amino-9-fluoro-8-methoxy-[1,2,4]triazolo[1,5-c]quinazolin-2-yl)-2-methylpiperidin-1-yl)-1H-pyrazol-1-yl)butan-2-ol], the figures for the IC50 in test [1] and in test [2] were 122 nM and 3840 nM, respectively.

As to `CC(O)C(C)n1cc(N2CC(c3nc4c5cc(F)cc(F)c5nc(N)n4n3)CCC2C)cn1` (single isomer, unassigned) [Example 232, (2S,3S or 2R,3R)-3-(4-((2S,5R or 2R,5S)-5-(5-amino-7,9-difluoro-[1,2,4]triazolo[1,5-c]quinazolin-2-yl)-2-methylpiperidin-1-yl)-1H-pyrazol-1-yl)butan-2-ol], the IC50 in test [1] worked out at 1.3 nM; in test [2], 12.7 nM.

With `CC(O)C(C)n1cc(N2CC(c3nc4c5cc(F)cc(F)c5nc(N)n4n3)CCC2C)cn1` (single isomer, unassigned) [Example 233, (2R,3R or 2S,3S)-3-(4-((2S,5R or 2R,5S)-5-(5-amino-7,9-difluoro-[1,2,4]triazolo[1,5-c]quinazolin-2-yl)-2-methylpiperidin-1-yl)-1H-pyrazol-1-yl)butan-2-ol], the figures for the IC50 in test [1] and in test [2] were 0.7 nM and 5.6 nM, respectively.

With `CC(O)C(C)n1cc(N2CC(c3nc4c5cc(F)cc(F)c5nc(N)n4n3)CCC2C)cn1` (single isomer, unassigned) [Example 234, (2R,3R or 2S,3S)-3-(4-((2R,5S or 2S,5R)-5-(5-amino-7,9-difluoro-[1,2,4]triazolo[1,5-c]quinazolin-2-yl)-2-methylpiperidin-1-yl)-1H-pyrazol-1-yl)butan-2-ol], the IC50 in test [1] worked out at 46.8 nM; in test [2], 1200 nM.
